PubChem BioAssay AID1259411 (Chemical Carcinogenesis Research Information System (CCRIS), 2018)
The source made the active and inactive calls. The rule behind the calls is not given here.

Test system: rodent carcinogenicity bioassays, tumor incidence
Assay: CCRIS carcinogenicity studies
Conditions: Dose: 0, Dose: 0
Summary of the method: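 NCI-built, expert-reviewed records of carcinogenicity and related test outcomes (mutagenicity, tumor promotion/inhibition) compiled from published and report sources, historical span 1985-2011, not updated.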

| Compound | carcinogen call (Species: MOUSE, Strain/Sex: B6C3F1/FEMALE, Route: INHALATION, 0.1, 0.5, 1 MG/M3 6 HR/D 5D/WK FOR 106 WK (STUDY DURATION: 106 WK), 0.1, 0.5, 1 MG/M3 6 HR/D 5D/WK FOR 106 WK (STUDY DURATION: 106 WK)) | carcinogen call (Species: MOUSE, Strain/Sex: B6C3F1/MALE, Route: INHALATION, 0.1, 0.5, 1 MG/M3 6 HR/D 5D/WK FOR 105 WK (STUDY DURATION: 105 WK), 0.1, 0.5, 1 MG/M3 6 HR/D 5D/WK FOR 105 WK (STUDY DURATION: 105 WK)) | carcinogen call (Species: MOUSE, Strain/Sex: ICR/MALE, Route: INTRAPERITONEAL, 48, 480 MG/KG AS GALLIUM SUSPENDED IN OLIVE OIL ONCE (STUDY DURATION: 18 MO), 48, 480 MG/KG AS GALLIUM SUSPENDED IN OLIVE OIL ONCE (STUDY DURATION: 18 MO)) | carcinogen call (Species: MOUSE, Strain/Sex: ICR/MALE, Route: SUBCUTANEOUS, 48, 480 MG/KG AS GALLIUM SUSPENDED IN OLIVE OIL ONCE (STUDY DURATION: 18 MO), 48, 480 MG/KG AS GALLIUM SUSPENDED IN OLIVE OIL ONCE (STUDY DURATION: 18 MO)) | carcinogen call (Species: RAT, Strain/Sex: F344/N/FEMALE, Route: INHALATION, 0.01, 0.1, 1 MG/M3 6 HR/D 5D/WK FOR 105 WK (STUDY DURATION: 105 WK), 0.01, 0.1, 1 MG/M3 6 HR/D 5D/WK FOR 105 WK (STUDY DURATION: 105 WK), Tumor Site: Type of Lesion: LUNG: ALVEOLAR/BRONCHIOLAR ADENOMA) | carcinogen call (Species: RAT, Strain/Sex: F344/N/MALE, Route: INHALATION, 0.01, 0.1, 1 MG/M3 6 HR/D 5D/WK FOR 105 WK (STUDY DURATION: 105 WK), 0.01, 0.1, 1 MG/M3 6 HR/D 5D/WK FOR 105 WK (STUDY DURATION: 105 WK)) | carcinogen call (Species: MOUSE, Strain/Sex: B6C3F1/FEMALE, Route: ORAL, 2500, 5000 PPM IN DIET (STUDY DURATION: 18 MO), 2500, 5000 PPM IN DIET (STUDY DURATION: 18 MO)) | carcinogen call (Species: MOUSE, Strain/Sex: B6C3F1/FEMALE, Route: ORAL, 7500, 15000 PPM IN DIET, 7500, 15000 PPM IN DIET) | carcinogen call (Species: MOUSE, Strain/Sex: B6C3F1/MALE, Route: ORAL, 2500, 5000 PPM IN DIET (STUDY DURATION: 18 MO), 2500, 5000 PPM IN DIET (STUDY DURATION: 18 MO)) | carcinogen call (Species: MOUSE, Strain/Sex: B6C3F1/MALE, Route: ORAL, 7500, 15000 PPM IN DIET, 7500, 15000 PPM IN DIET, Tumor Site: Type of Lesion: KIDNEY: MALIGNANT TUMOR) | carcinogen call (Species: RAT, Strain/Sex: F344/FEMALE, Route: ORAL, 200, 2000, 20000 PPM IN DIET (STUDY DURATION: 24 MO), 200, 2000, 20000 PPM IN DIET (STUDY DURATION: 24 MO), Tumor Site: Type of Lesion: URINARY BLADDER: TUMOR, URETER: TUMOR, KIDNEY: TUMOR, Tumor Site: Type of Lesion: URINARY BLADDER: TUMOR, URETER: TUMOR, KIDNEY: TUMOR) | carcinogen call (Species: RAT, Strain/Sex: F344/FEMALE, Route: ORAL, 7500, 1500 PPM IN DIET (STUDY DURATION: 18 MO), 7500, 1500 PPM IN DIET (STUDY DURATION: 18 MO), Tumor Site: Type of Lesion: URINARY BLADDER: PAPILLOMA OR SQUAMOUS CELL CARCINOMA OR TRANSITIONAL CELL CARCINOMA) | carcinogen call (Species: RAT, Strain/Sex: F344/FEMALE, Route: ORAL, 7500, 15000 PPM IN DIET, 7500, 15000 PPM IN DIET, Tumor Site: Type of Lesion: URINARY BLADDER: MALIGNANT TUMOR) | carcinogen call (Species: RAT, Strain/Sex: F344/MALE, Route: ORAL, 200, 2000, 20000 PPM IN DIET (STUDY DURATION: 24 MO), 200, 2000, 20000 PPM IN DIET (STUDY DURATION: 24 MO), Tumor Site: Type of Lesion: KIDNEY: TUMOR, URETER: TUMOR) | carcinogen call (Species: RAT, Strain/Sex: F344/MALE, Route: ORAL, 7500, 15000 PPM IN DIET (STUDY DURATION: 18 MO), 7500, 15000 PPM IN DIET (STUDY DURATION: 18 MO), Tumor Site: Type of Lesion: KIDNEY: TUBULAR CELL ADENOCARCINOMA OR SARCOMA METASTATIC OR HAMARTOMA, RENAL PELVIS: TRANSIT CELL PAPILLOMA) | carcinogen call (Species: RAT, Strain/Sex: F344/MALE, Route: ORAL, 7500, 15000 PPM IN DIET, 7500, 15000 PPM IN DIET) | carcinogen call (Species: RAT, Strain/Sex: SPRAGUE-DAWLEY/MALE, Route: ORAL, 1000 PPM (PURITY NOT REPORTED) IN DRINKING WATER FOR 2 YR, Tumor Site: Type of Lesion: KIDNEY: TUBULAR CELL ADENOMA OR ADENOCARCINOMA) |
| --- | --- | --- | --- | --- | --- | --- | --- | --- | --- | --- | --- | --- | --- | --- | --- | --- | --- |
| [Ga]#[As] | inactive; negative | inactive; negative | inactive; negative | inactive; negative | active; positive | inactive; negative |  |  |  |  |  |  |  |  |  |  |  |
| O=C(O)CN(CC(=O)O)CC(=O)O |  |  |  |  |  |  | inactive; negative | inactive; negative | inactive; negative | active; positive | active; positive | equivocal | active; positive | active; positive | equivocal | inactive; negative | active; positive |
